Measured values from patent US20050233313A1, “Methods and reagents for identifying inhibitors of viral protease activity” (priority 2002, published 2005).

tested on: β-galactosidase substrate with HIV protease cleavage site; test: cleavage of a β-galactosidase substrate by processed PR expressed from pMono in E. coli, Western blot; type: cell-based; conditions: single alanine substitutions in processed monomeric PR; full-length β-galactosidase cleavage, average of two or more inductions
From the text: Plasmid pMono expresses wild-type or mutated monomeric protease from the tac promoter (Amann et al. (1983) Gene 25:167-178) in Escherichia coli and was derived from plasmid P1+IQ (Baum et al. (1990) Proc. Natl. Acad. Sci. USA 87:10023-10027). Protease sequences in P1+1Q were replaced by a linker of 5′ XhoI-XbaI-SalI-PstI 3′ to produce p1CVx. Wild-type or mutated protease sequences were obtained from pET-PR by PCR with primers 5′Xho (AATATA-CTCGAG-[…], SEQ ID NO: 1) and 3′Xba (ATAAAT-TCTAGA-[…], SEQ ID NO: 2) and were inserted into p1CVx to produce pMono. The phagemid pET-PR contains the 99-residue coding domain of the monomeric protease (HXB2 isolate [Ratner et al. (1987) AIDS Res. Hum. Retrovir. 3:57-69]) inserted into the NdeI-BamHI sites of pET24a (Novagen). The Kunkel method using single-stranded templates of pET-PR substituted with uracil was employed for site-directed mutagenesis (Bebenek and Kunkel (1989) Nucleic Acids Res. 17:5408, Kunkel et al. (1991) Methods Enzymol204:125-139). Mutations were confirmed by DNA sequencing prior to transfer of the protease sequences into p1CVx.
Uninduced mid-log-phase (optical density at 600 nm=0.5) cultures of lac-E. coli strain MC1061 carrying pMono were grown in yeast-tryptone medium to produce samples for Western blot analysis. Cells were pelleted, resuspended in 400 μl of sodium dodecyl sulfate (SDS)-polyacrylamide gel electrophoresis (PAGE) sample buffer (Pettit et al. (1991) J. Biol. Chem. 266:14539-14547) (optical density at 600 nm=˜0.5), and heated to 95° C. for 4 min. SDS-PAGE was performed on Tris-glycine gels (7.5% polyacrylamide) (Laemmli (1970) Nature […]). Separated proteins were bound to nitrocellulose by electrotransfer, blocked for 1 h with 3% bovine serum albumin in Tris-buffered saline-0.1% Tween 20, and probed with anti-β-galactosidase monoclonal antibody (Boehringer) at a 1:5,000 dilution. Following multiple washes in Tris-buffered saline-0.1% Tween 20, β-galactosidase was detected with the ECL Plus system followed by autoradiography according to the instructions of the manufacturer (Amersham Pharmacia). The extent of β-galactosidase cleavage was determined by densitometric measurement on a Molecular Dynamics Storm model 800 Phosphorlmager. For scanning, the Phosphorlmager was set in the blue fluorescence and chemifluorescence mode with a photomultiplier tube voltage of 700 V. The final value for percent cleavage of the β-galactosidase substrate was determined by taking the average of two or more independent inductions.
For these studies, we modified an E. coli expression system developed as described in Baum et al. (1990) Proc. Natl. Acad. Sci. USA 87:10023-10027. The vector (pMono) expresses HIV protease and the β-galactosidase gene. A cleavage cassette consisting of a decapeptide corresponding to an HIV protease cleavage site was inserted into the β-galactosidase open reading frame. In this system, enzyme activity may be assessed via Western blotting as the percent cleavage of full-length β-galactosidase.

Point of comparison: “Wild type: wild-type mature 99-residue monomeric HIV-1 protease (HXB2) expressed from pMono”, “% Cleavage” value 96%. Against it:
- N98A: processed HIV-1 protease with single alanine substitution of dimer interface residue Asn 98 — lower, 68%
- D25A: processed HIV-1 protease with replacement of the catalytic aspartate, negative control — lower, 0%
- P1A: processed HIV-1 protease with single alanine substitution of dimer interface residue Pro 1 — lower, 92%
- F99A: processed HIV-1 protease with single alanine substitution of dimer interface residue Phe 99 — lower, 0%
- L97A: processed HIV-1 protease with single alanine substitution of dimer interface residue Leu 97 — lower, 0%
- T4A: processed HIV-1 protease with single alanine substitution of dimer interface residue Thr 4 — the same, 96%
- T96A: processed HIV-1 protease with single alanine substitution of dimer interface residue Thr 96 — lower, 14%
- Q2A: processed HIV-1 protease with single alanine substitution of dimer interface residue Gln 2 — the same, 96%
